In ChEMBL document CHEMBL5608210 (Eur J Med Chem, 2024) one finds inhibition, IC50 and Activity data, which are given here for 34 compounds.

The target in data set [1] is T1, Fatty acid-binding protein, liver (Homo sapiens) (UniProt P07148).
T1 sequence (whole entry): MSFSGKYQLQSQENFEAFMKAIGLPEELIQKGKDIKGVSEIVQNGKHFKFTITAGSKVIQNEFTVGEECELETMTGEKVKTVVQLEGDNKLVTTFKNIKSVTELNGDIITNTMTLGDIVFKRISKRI
Put plainly: Inhibition of human FABP1 at 9 uM incubated for 3 mins by fluorescence based analysis relative to control.

The target in data set [2] is T2, Fatty acid-binding protein, liver (Homo sapiens, UniProt P07148).
T2 sequence (P07148 whole entry): T1 sequence (whole entry)
Briefly: Inhibition of human FABP1 incubated for 3 mins by fluorescence based analysis.

Data set [3] concerns the target Fatty acid-binding protein, adipocyte (Homo sapiens, UniProt P15090). Briefly: Inhibition of FABP4 (unknown origin) incubated for 3 mins by fluorescence based analysis.
Data set [4] in a line: Toxicity in high-fat diet induced obese male C57BL/6 mouse model assessed as effect on UA level in serum at 20 mg/kg/day, po measured after 4 weeks by automatic biochemical analyzer. It counts as organism-based. Particulars: in vivo, 672 h.
Data set [5] relates to Mus musculus. Put plainly: Hepatoprotective activity in high-fat diet induced obese male C57BL/6 mouse model assessed reduction in hepatocyte steatosis at 20 mg/kg, po administered everyday for 4 weeks by H and E staining based analysis. The class given is functional, organism-based.
The nature of data set [6]: Toxicity in high-fat diet induced obese male C57BL/6 mouse model assessed as effect on AST level in serum at 20 mg/kg/day, po measured after 4 weeks by automatic biochemical analyzer. It counts as organism-based. The settings on record: in vivo, 672 h.
For data set [7], the system named is Mus musculus. Put plainly: Anti-NAFLD activity in high-fat diet induced obese male C57BL/6 mouse model assessed as reduction in AUC (0 to 90 mins) at 20 mg/kg, po administered everyday for 4 weeks by oral glucose tolerance test. It counts as functional, organism-based.
The subject of data set [8] is Mus musculus. Put plainly: Anti-NAFLD activity in high-fat diet induced obese male C57BL/6 mouse model assessed as improvement in oral glucose tolerance at 20 mg/kg, po administered everyday for 4 weeks by oral glucose tolerance test. It counts as functional, organism-based.
Data set [9] is described as follows: Toxicity in high-fat diet induced obese male C57BL/6 mouse model assessed as effect on TBA level in serum at 20 mg/kg/day, po measured after 4 weeks by automatic biochemical analyzer. The settings on record: in vivo, 672 h. The class given is organism-based.
Data set [10] has as its system Mus musculus. Put plainly: Hepatoprotective activity in high-fat diet induced obese male C57BL/6 mouse model assessed as reduction in LDL-C level in serum at 20 mg/kg/day, po measured after 4 weeks by automatic biochemical analyzer. It counts as functional, organism-based.
The nature of data set [11]: Toxicity in high-fat diet induced obese male C57BL/6 mouse model assessed as effect on TBIL level in serum at 20 mg/kg/day, po measured after 4 weeks by automatic biochemical analyzer. It counts as organism-based. Particulars: in vivo, 672 h.
For data set [12], the system named is Mus musculus. Put plainly: Hepatoprotective activity in high-fat diet induced obese male C57BL/6 mouse model assessed as decrease in IL-1 beta level in liver at 20 mg/kg/day, po measured after 4 weeks by ELISA method. The class given is functional, organism-based.
The subject of data set [13] is Mus musculus. Briefly: Hepatoprotective activity in high-fat diet induced obese male C57BL/6 mouse model assessed as decrease in IL-6 level in liver at 20 mg/kg/day, po measured after 4 weeks by ELISA method. It counts as functional, organism-based. (In general: ELISA stands for enzyme-linked immunosorbent assay.)
The nature of data set [14]: Toxicity in high-fat diet induced obese male C57BL/6 mouse model assessed as effect on ALT level in serum at 20 mg/kg/day, po measured after 4 weeks by automatic biochemical analyzer. The class given is organism-based. The settings on record: in vivo, 672 h.
Data set [15] deals with Mus musculus. Put plainly: Hepatoprotective activity in high-fat diet induced obese male C57BL/6 mouse model assessed as reduction in TG level in serum at 20 mg/kg/day, po measured after 4 weeks by automatic biochemical analyzer. The class given is functional, organism-based.
Data set [16] in a line: Toxicity in high-fat diet induced obese male C57BL/6 mouse model assessed as effect on ALP level in serum at 20 mg/kg/day, po measured after 4 weeks by automatic biochemical analyzer. It counts as organism-based. Particulars: in vivo, 672 h.
Data set [17] deals with Mus musculus. Briefly: Hepatoprotective activity in high-fat diet induced obese male C57BL/6 mouse model assessed reduction in inflammatory cell infiltration at 20 mg/kg, po administered everyday for 4 weeks by H and E staining based analysis. The class given is functional, organism-based.
In data set [18] the test system is Mus musculus. Briefly: Hepatoprotective activity in high-fat diet induced obese male C57BL/6 mouse model assessed as decrease in TNF-alpha level in liver at 20 mg/kg/day, po measured after 4 weeks by ELISA method. It counts as functional, organism-based.
For data set [19], the system named is Mus musculus. Put plainly: Hepatoprotective activity in high-fat diet induced obese male C57BL/6 mouse model assessed as reduction in TC level in serum at 20 mg/kg/day, po measured after 4 weeks by automatic biochemical analyzer. The class given is functional, organism-based.
The subject of data set [20] is Mus musculus. Put plainly: Hepatoprotective activity in high-fat diet induced obese male C57BL/6 mouse model assessed as decrease in MCP-1 level in liver at 20 mg/kg/day, po measured after 4 weeks by ELISA method. The class given is functional, organism-based.

Activity calls are given as the source filed them. The rule behind the calls is not given here.

Sequence of Fatty acid-binding protein, adipocyte (P15090 whole entry): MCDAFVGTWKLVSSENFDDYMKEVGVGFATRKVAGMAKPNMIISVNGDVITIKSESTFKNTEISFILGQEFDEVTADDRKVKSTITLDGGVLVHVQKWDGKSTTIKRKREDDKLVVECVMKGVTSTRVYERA

Broadly, the inhibition is the percentage by which the read-out fell short of the control. Low values mean a response near the control, high ones a response far below the control. In turn, `O=C(O)CC(=O)N1CCN(S(=O)(=O)c2ccc(-c3ccccc3)cc2)CC1` came in with an inhibition in data set [1] of 13.4%.

One may read the IC50 as the concentration at which inhibition is half-maximal. Lower therefore signals higher potency. For the compound `O=C(O)CCCCCCCOc1cccc(NS(=O)(=O)c2cccc3cccnc23)c1`, the inhibition in data set [1] stood at 69.3%. Moreover, in [2], the IC50 came to 3.02 µM.

In the case of `O=C(O)C[C@H](NC(=O)c1ccc(NS(=O)(=O)c2cccc3cccnc23)cc1)C(=O)O`, the inhibition in data set [1] was 13.1%.

For `O=C(O)CCCCCCCOc1cccc(NS(=O)(=O)c2ccc(-c3ccccc3)cc2)c1`, the inhibition in data set [1] stood at 73.5%. The half-inhibitory concentration (IC50) in data set [2] amounted to 3.24 µM.

`O=C(O)C1CCCN(S(=O)(=O)c2cccc3cccnc23)C1` (stereo not given) had an inhibition in data set [1] of 13.7%.

In data set [1], `N#Cc1ccc(-c2ccccc2S(=O)(=O)N2CCN(S(=O)(=O)c3cccc4cccnc34)CC2)cc1` came in with an inhibition of 61.2%. This compound also yielded an IC50 in [2] of 2.66 µM.

For the compound `O=C(O)CC(NC(=O)C1CCCN(S(=O)(=O)c2cccc3cccnc23)C1)C(=O)O` (stereo not given), the inhibition in [1] came to 12.1%.

In [1], `O=C(O)CC(=O)N1CCN(C(=O)c2ccc(NS(=O)(=O)c3cccc4cccnc34)cc2)CC1` had an inhibition of 23.8%.

As for `CSCCC(NS(=O)(=O)c1cccc2cccnc12)C(=O)O` (stereo not given), the inhibition in data set [1] amounted to 20.9%.

`O=C(O)CC[C@H](NC(=O)c1ccc(NS(=O)(=O)c2cccc3cccnc23)cc1)C(=O)O` came in with an inhibition in [1] of 12.2%.

Consider `O=C(C1CCCN(S(=O)(=O)c2cccc3cccnc23)C1)N1CCNCC1` (stereo not given), for which the inhibition in data set [1] amounted to 11.5%.

Turning to `O=S(=O)(c1ccc(-c2ccccc2)cc1)N1CCNCC1`, in data set [1], the inhibition amounted to 0.18%.

In the case of `O=C(O)C1(C(=O)N2CCN(S(=O)(=O)c3ccc(-c4ccccc4)cc3)CC2)CC1`, the inhibition in data set [1] worked out at 21.1%.

Compound `O=C(O)C1(c2cccc(-c3ccc(OCc4c(-c5c(Cl)cccc5Cl)noc4C4CC4)cc3)c2)CC1` came in with an IC50 in [3] of 6.2 µM.

In turn, `O=C(O)c1cccc(NS(=O)(=O)c2cccc3cccnc23)c1` came in with an inhibition in [1] of 8.28%.

In data set [1], `O=C(O)CCC(NC(=O)N1CCN(S(=O)(=O)c2cccc3cccnc23)CC1)C(=O)O` (stereo not given) had an inhibition of 31.6%.

Compound `Cc1cc(F)ccc1-c1ccccc1S(=O)(=O)N1CCN(S(=O)(=O)c2cccc3cccnc23)CC1` had an inhibition in data set [1] of 63.8%. The compound further returned a concentration for half-maximal inhibition (IC50) in [2] of 6.11 µM.

In turn, `O=S(=O)(c1ccccc1-c1ccc(F)cc1)N1CCN(S(=O)(=O)c2cccc3cccnc23)CC1` registered an inhibition in [1] of 52.7%. The same compound had a 50% inhibitory concentration (IC50) in data set [2] of 5.66 µM.

In data set [1], `O=C(O)CCNS(=O)(=O)c1cccc2cccnc12` returned an inhibition of 3.47%.

Compound `O=C(O)CCNC(=O)c1ccc(NS(=O)(=O)c2cccc3cccnc23)cc1` returned an inhibition in [1] of 15.3%.

Compound `O=C(O)CNC(=O)CNC(=O)c1ccc(NS(=O)(=O)c2cccc3cccnc23)cc1` yielded an inhibition in [1] of 11.9%.

`O=C(O)CNC(=O)c1ccc(NS(=O)(=O)c2cccc3cccnc23)cc1` registered an inhibition in [1] of 16.1%.

Compound `O=C(O)c1ccc(NS(=O)(=O)c2cccc3cccnc23)cc1` gave an inhibition in data set [1] of 1.28%.

In data set [1], `O=C(O)C1(C(=O)N2CCN(S(=O)(=O)c3cccc4cccnc34)CC2)CC1` displayed an inhibition of 30.5%.

Turning to `O=S(=O)(c1ccccc1-c1cccc(O)c1)N1CCN(S(=O)(=O)c2cccc3cccnc23)CC1`, the Activity result in data set [4], in [6], in data set [9], in data set [11], in data set [14] and in data set [16] was “Non-Toxic” each time. In addition, the figures for the IC50 in data set [3] and in [2] were over 80 µM and 1.18 µM, respectively. In addition, the outcome in the data set with Mus musculus [5], in the data set on Mus musculus [7], in the data set with Mus musculus [8], in the data set with Mus musculus [10], in the data set on Mus musculus [12] and in the data set on Mus musculus [13] was Active. For the same compound, the result with Mus musculus [15], in the data set with Mus musculus [17], in the data set with Mus musculus [18], in the data set with Mus musculus [19] and in the data set with Mus musculus [20] was Active. Moreover, the inhibition in [1] was determined as 78.1%.

Take `O=C(O)CCCCCCCOc1ccc(NS(=O)(=O)c2cccc3cccnc23)cc1`: in data set [1], the inhibition amounted to 72.5%. In data set [2], this compound returned an IC50 of 2.44 µM.

Consider `O=C(O)CC(=O)N1CCN(S(=O)(=O)c2cccc3cccnc23)CC1`, for which the inhibition in [1] was found to be 26.2%.

The compound `O=C(c1ccc(NS(=O)(=O)c2cccc3cccnc23)cc1)N1CCN(C(=O)C2(C(=O)O)CC2)CC1` displayed an inhibition in data set [1] of 29.9%.

`O=C(O)c1ccc(-c2ccccc2S(=O)(=O)N2CCN(S(=O)(=O)c3cccc4cccnc34)CC2)cc1` came in with an inhibition in data set [1] of 68.3%. In [2], this compound yielded an IC50 of 2.11 µM.

Compound `CCc1c(-c2ccccc2)c(-c2ccccc2)nn1-c1ccccc1-c1cccc(OCC(=O)O)c1` yielded an IC50 in [2] of 2.71 µM.

In turn, `O=C(O)CNS(=O)(=O)c1cccc2cccnc12` gave an inhibition in data set [1] of 4.26%.

`O=C(O)CCC(NC(=O)C1CCCN(S(=O)(=O)c2cccc3cccnc23)C1)C(=O)O` (stereo not given) yielded an inhibition in [1] of 10.3%.

In data set [1], `CC1CN(S(=O)(=O)c2cccc3cccnc23)CCN1C(=O)CC(=O)O` (stereo not given) had an inhibition of 20.3%.

As to `O=C(O)CNC(=O)CNS(=O)(=O)c1cccc2cccnc12`, in [1], the inhibition is 10.1%.
